From PubChem BioAssay AID250 (DTP/NCI, 2004)
Toxic doses and inconclusive results are not listed.

System: BDF1 mice, L1210 leukemia sc, survival T/C
Assay: NCI In Vivo Anticancer Drug Screen. Data for tumor model L1210 Leukemia (subcutaneous) in B6D2F1 (BDF1) mice
Conditions: higher = longer survival
Method in brief: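 Antitumor activity is assessed in mice with transplanted tumors by comparing the treated group (T) with the vehicle control group (C).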

[1] = endpoint: median survival time, dose: 130.0 mg/kg/injection, schedule: Q01DX Z (sc), vehicle: water
[2] = endpoint: median survival time, dose: 216.0 mg/kg/injection, schedule: Q01DX Z (sc), vehicle: water
[3] = endpoint: median survival time, dose: 65.0 mg/kg/injection, schedule: Q01DX Z (sc), vehicle: methylcellulose (MC)
[4] = endpoint: median survival time, dose: 108.0 mg/kg/injection, schedule: Q01DX Z (sc), vehicle: methylcellulose (MC)
[5] = endpoint: median survival time, dose: 180.0 mg/kg/injection, schedule: Q01DX Z (sc), vehicle: methylcellulose (MC)
[6] = endpoint: median survival time, dose: 300.0 mg/kg/injection, schedule: Q01DX Z (sc), vehicle: methylcellulose (MC)
[7] = endpoint: median survival time, dose: 500.0 mg/kg/injection, schedule: Q01DX Z (sc), vehicle: methylcellulose (MC)
[8] = endpoint: median survival time, dose: 65.0 mg/kg/injection, schedule: Q01DX Z (sc), vehicle: saline
[9] = endpoint: median survival time, dose: 108.0 mg/kg/injection, schedule: Q01DX Z (sc), vehicle: saline
[10] = endpoint: median survival time, dose: 180.0 mg/kg/injection, schedule: Q01DX Z (sc), vehicle: saline
[11] = endpoint: median survival time, dose: 300.0 mg/kg/injection, schedule: Q01DX Z (sc), vehicle: saline
[12] = endpoint: median survival time, dose: 500.0 mg/kg/injection, schedule: Q01DX Z (sc), vehicle: saline
[13] = endpoint: median survival time, dose: 833.0 mg/kg/injection, schedule: Q01DX Z (sc), vehicle: saline

Question: Which T/C (endpoint: median survival time, dose: 28.0 mg/kg/injection, schedule: Q01DX Z (sc), vehicle: water) does the source give for CCN(CC)C(=O)c1cccnc1 here?
Answer: 109 % of control

Question: What about the T/C (endpoint: median survival time, dose: 46.7 mg/kg/injection, schedule: Q01DX Z (sc), vehicle: water) of the same compound?
Answer: 100 % of control

Question: What about the T/C (endpoint: median survival time, dose: 77.8 mg/kg/injection, schedule: Q01DX Z (sc), vehicle: water) of the same compound?
Answer: 100 % of control

Question: What about the T/C [1] of the same compound?
Answer: 100 % of control

Question: And the T/C [2]?
Answer: 100 % of control

Question: With c1ccc2[nH]cnc2c1 as the compound, how does the T/C (endpoint: median survival time, dose: 14.0 mg/kg/injection, schedule: Q01DX Z (sc), vehicle: other) read?
Answer: 100 % of control

Question: And the T/C (endpoint: median survival time, dose: 300.0 mg/kg/injection, schedule: Q01DX Z (sc), vehicle: other)?
Answer: 100 % of control

Question: What about the T/C (endpoint: median survival time, dose: 500.0 mg/kg/injection, schedule: Q01DX Z (sc), vehicle: other) of the same compound?
Answer: 100 % of control

Question: What does the source list for COc1cccc(/C=N/NC(N)=S)c1?
Answer: T/C (endpoint: median survival time, dose: 78.0 mg/kg/injection, schedule: Q01DX Z (sc), vehicle: water): 100 % of control; T/C [1]: 105 % of control; T/C [2]: 100 % of control

Question: What does the source list for CCOC(=O)NP(=O)(N1CC1(C)C)N1CC1(C)C (configuration not stated)?
Answer: T/C [3]: 91 % of control; T/C [4]: 100 % of control; T/C (endpoint: median survival time, dose: 130.0 mg/kg/injection, schedule: Q01DX Z (sc), vehicle: methylcellulose (MC)): 95 % of control; T/C [5]: 100 % of control; T/C (endpoint: median survival time, dose: 216.0 mg/kg/injection, schedule: Q01DX Z (sc), vehicle: methylcellulose (MC)): 100 % of control; T/C [6]: 100 % of control; T/C [7]: 100 % of control

Question: With O=C(NC(CO)C(=O)O)C(Cl)Cl (configuration not stated) as the compound, how does the T/C (endpoint: median survival time, dose: 138.8 mg/kg/injection, schedule: Q01DX Z (sc), vehicle: water) read?
Answer: 100 % of control

Question: What about the T/C (endpoint: median survival time, dose: 300.0 mg/kg/injection, schedule: Q01DX Z (sc), vehicle: water) of the same compound?
Answer: 100 % of control

Question: What about the T/C (endpoint: median survival time, dose: 500.0 mg/kg/injection, schedule: Q01DX Z (sc), vehicle: water) of the same compound?
Answer: 100 % of control

Question: How did the T/C (endpoint: median survival time, dose: 39.0 mg/kg/injection, schedule: Q01DX Z (sc), vehicle: methylcellulose (MC)) turn out when CC(=O)[C@@]1(O)CC[C@H]2[C@@H]3C[C@H](C)C4=CC(=O)C=C[C@]4(C)[C@@]3(F)[C@@H](O)C[C@@]21C was run?
Answer: 111 % of control

Question: What about the T/C [3] of the same compound?
Answer: 105 % of control

Question: And the T/C [4]?
Answer: 111 % of control

Question: And the T/C [5]?
Answer: 111 % of control

Question: What about the T/C [6] of the same compound?
Answer: 111 % of control

Question: And the T/C [7]?
Answer: 100 % of control

Question: How did the T/C [8] turn out when O=c1[nH]c(=O)n(C2CC(O)C(CO)O2)cc1Br (configuration not stated) was run?
Answer: 111 % of control

Question: And the T/C [9]?
Answer: 111 % of control

Question: What about the T/C [10] of the same compound?
Answer: 111 % of control

Question: What about the T/C [11] of the same compound?
Answer: 111 % of control

Question: And the T/C [12]?
Answer: 122 % of control

Question: What about the T/C [13] of the same compound?
Answer: 122 % of control

Question: How did the T/C [8] turn out when [N-]=[N+]=CC(=O)NCC(=O)NN was run?
Answer: 90 % of control

Question: What about the T/C [9] of the same compound?
Answer: 100 % of control

Question: What about the T/C [10] of the same compound?
Answer: 100 % of control

Question: What about the T/C [11] of the same compound?
Answer: 100 % of control

Question: And the T/C [12]?
Answer: 100 % of control

Question: And the T/C [13]?
Answer: 107 % of control

Question: With C[n+]1ccc(Nc2ccc(NC(=O)c3ccc(Nc4cc[n+](C)c5ccc(N)cc45)cc3)cc2)cc1 as the compound, how does the T/C (endpoint: median survival time, dose: 0.5 mg/kg/injection, schedule: Q01DX009 (ip), vehicle: Klucel (hydroxypropylcellulose) (HPC)) read?
Answer: 100 % of control

Question: What about the T/C (endpoint: median survival time, dose: 1.0 mg/kg/injection, schedule: Q01DX009 (ip), vehicle: Klucel (hydroxypropylcellulose) (HPC)) of the same compound?
Answer: 110 % of control

Question: What about the T/C (endpoint: median survival time, dose: 2.0 mg/kg/injection, schedule: Q01DX009 (ip), vehicle: Klucel (hydroxypropylcellulose) (HPC)) of the same compound?
Answer: 182 % of control

Question: And the T/C (endpoint: median survival time, dose: 4.0 mg/kg/injection, schedule: Q01DX009 (ip), vehicle: Klucel (hydroxypropylcellulose) (HPC))?
Answer: 250 % of control

Question: What about the T/C (endpoint: median survival time, dose: 8.0 mg/kg/injection, schedule: Q01DX009 (ip), vehicle: Klucel (hydroxypropylcellulose) (HPC)) of the same compound?
Answer: 291 % of control

Question: Which T/C (endpoint: mean survival time, dose: 3.18 mg/kg/injection, schedule: Q01DX009 (sc), vehicle: saline) does the source give for CCCCC(=O)N(c1ccc(Nc2c3ccccc3nc3cc([N+](=O)[O-])ccc23)cc1)S(C)(=O)=O here?
Answer: 107 % of control

Question: And the T/C (endpoint: mean survival time, dose: 6.25 mg/kg/injection, schedule: Q01DX009 (sc), vehicle: saline)?
Answer: 112 % of control

Question: What about the T/C (endpoint: mean survival time, dose: 25.0 mg/kg/injection, schedule: Q01DX009 (sc), vehicle: saline) of the same compound?
Answer: 168 % of control
